Like-named read-outs stand apart in the source and are kept apart here.
Key:
[1] = Tissue distribution study after oral administration of CA extract in normal and FD rats; conditions: distribution found in rat brain
Description: (§1) UPLC–MS/MS analysis was conducted using the ACQUITY UPLC system (Waters Corp., Milford, MA, United States) equipped with a Xevo–TQ mass spectrometer (Waters Corp., Milford, MA, United States) with an electrospray ionization (ESI) interface and triple quadrupole mass analyzer.
(§2) The ACQUITY UPLC® BEH C18 column (2.1 mm × 50 mm, 1.7 μm, Waters, United States) was used for separation and was maintained at 40°C. The mobile phase consisted of 0.1% formic acid in water (A) and 0.1% formic acid–acetonitrile (B) for PK study and 0.2% formic acid in water (A) and 0.2% formic acid–acetonitrile (B) for tissue distribution study. The mobile phase was eluted as a gradient, as follows: 0–0.5 min, 10% B; 0.5–3.0 min, 15% B; 3.0–3.2 min, 25% B; 3.2–4.0 min, 30% B; 4.0–4.5 min, 32% B; 4.5–6.0 min, 90% B; and 6.0 min, 10% B. The flow rate was set at 0.35 mL/min and the injection volume was 2 μL for the PK study and 1 μL for the tissue distribution study.
(§3) The four active components of CA were quantified using multiple reaction monitoring under negative ion mode. The following m/z transitions were chosen for quantification: baishouwu benzophenone 301.00→283.00, deacylmetaplexigenin 379.15→361.20, qingyangshengenin 499.20→137.00, syringic acid 197.20→181.95, and puerarin (internal standard, IS) 415.10→267.05. The collision energy was 15, 15, 35, 15, and 35 V, respectively ([Sun et al., 2022]). ESI mode was operated under the following conditions: capillary voltage, 1 kV; desolvation gas (N2), 1000 L/h; collision gas (Ar2), 150 L/h; desolvation temperature, 400°C; and source temperature, 120°C.
(§4) Additionally, stomach and small intestinal tissues were diluted three times to obtain a tissue homogenate. Then, 300 μL of this tissue homogenate was mixed with 30 μL 1% formic acid-water, 20 μL IS, and 1.2 mL acetonitrile. The mixture was then vortexed for 5 min, sonicated for 10 min, and then stored at −20°C for 30 min. Subsequently, the mixture was centrifuged at 14,000 rpm for 10 min. The supernatant obtained was then transferred to another tube and evaporated to dryness at 37°C under nitrogen. The dried residue was reconstituted with 200 μL of the 50% methanol–water, and the centrifugation process was repeated. The obtained supernatant was then used for further analysis.
(§5) SD rats were randomly divided into normal and FD groups (n = 30 each) and orally administered 10 mL/kg of CA extract solution. The rats were sacrificed at 10, 30 min, 1, 2, and 4 h after administration (6 rats per time point). Subsequently, their heart, liver, spleen, lung, kidney, brain, small intestine, and stomach were removed. The tissue samples were then washed in saline solution and wiped with filter paper. Subsequently, all tissues were stored at −80°C until analysis.

[2] = rat, in vivo
Description: as §1, §2, §3, §4, §5

[3] = PK study: plasma pharmacokinetics after oral administration of CA extract in normal and FD rats (UPLC-MS/MS); type: in vivo; conditions: Sprague-Dawley, rat; for AUC(0-inf) / AUC(0-t) / CL/F / Cmax / half-life: n = 6; for Vd/F: n = 6, read-out: Vz/F
Description: For PK experiments, an appropriate amount of the CA extract was weighed to prepare a 0.10 g/mL solution using physiological saline. Briefly, 12 SD rats were randomly assigned to normal and FD groups and were orally administered the prepared CA sample (10 mL/kg body weight). For assessment, 0.3 mL of blood was collected into heparinized tubes via the caudal vein before dosing and at 2, 5, 10, 15, 20, 30, and 45 min, and 1, 2, 4, 8, 12, 24, and 48 h after administration. Blood samples were then immediately centrifuged at 4,500 rpm for 15 min, and the obtained plasma samples were stored at −20°C until determination.
The PK parameters were analyzed using the non–compartment analysis using the WinNonLin 8.2 software (Phoenix, United States). All the data were expressed as mean ± standard deviation (SD). The normal and FD groups were compared using independent samples t–test in SPSS 22.0. Results with p values < 0.05 were considered statistically significant.

[4] = Stability of the four compounds in tissue homogenate samples (QC samples); conditions: mean ± s, n = 5
Description: as §4
The appropriate amount of the reference substance was accurately weighed and dissolved in an appropriate amount of methanol to obtain stock solutions. The concentrations of the resulting stock solution were 0.9996 mg/mL for baishouwu benzophenone, 0.9518 mg/mL for deacylmetaplexigenin, 1.3660 mg/mL for qingyangshengenin, and 0.9898 mg/mL for syringic acid. Accurate volumes of each stock solution were mixed to obtain working solution, which was then serially diluted with methanol to provide standard working solutions. Similarly, QC samples of three concentrations (low, medium, and high) were prepared. All solutions were stored at −20°C for later use.
The following parameters of stability were assessed: short–term stability (24 h at room temperature), processed sample stability (24 h at 4°C), freeze–thaw stability (3 cycles), and auto–sampler stability (6 h at room temperature). QC samples of different concentrations were used for stability analysis.

[5] = Stability of the four compounds in plasma samples (QC samples); conditions: n = 5
Description: In a 1.5 mL EP tube, 100 μL of plasma sample was mixed with 10 µL 1% formic acid–water, 10 μL IS (0.2011 μg/mL), and 400 μL acetonitrile. The mixture was then vortexed for 5 min, followed by sonication for 10 min at 40 kHz and centrifugation at 14,000 rpm for 10 min. The supernatant obtained was transferred to another tube and evaporated to dryness under a nitrogen vacuum at 37°C. The residue obtained was reconstituted with 150 μL of the initial mobile phase, and the centrifugation process was repeated. The supernatant thus obtained was then used for further analysis.
Similarly, QC samples of three concentrations (low, medium, and high) were prepared.
The specificity of the method was evaluated by comparing the retention times of analytes and IS in the blank matrix, blank matrix spiked with the four analytes and IS, and the samples after oral administration of CA extract. Calibration curves were constructed by comparing the ratio of peak areas of the four analytes to that of IS versus the concentration of the four analytes. Calibration curves were fitted via linear weighted (1/X ^ 2 ) least–squares regression. The intra–and inter–day precision and accuracy were estimated by analyzing QC samples at different concentrations on the same day and three consecutive validation days, respectively. The extraction recovery was evaluated by determining the peak area of analytes in QC samples compared with that in extracted matrix samples. The relative standard deviation of the extraction recovery of analytes at each level was retained at ≤20.0%. The following parameters of stability were assessed: short–term stability (24 h at room temperature), processed sample stability (24 h at 4°C), freeze–thaw stability (3 cycles), and auto–sampler stability (6 h at room temperature). QC samples of different concentrations were used for stability analysis.

[6] = FD group rats, oral CA extract (0.10 g/mL solution, 10 mL/kg)
[7] = Normal group rats, oral CA extract (0.10 g/mL solution, 10 mL/kg)
[8] = Brain homogenate, highest QC (ng·mL^-1): Baishouwu benzophenone 131.10, Syringic acid 320.04, Qingyangshengenin 62.12, Deacylmetaplexigenin 677.19
[9] = Brain homogenate, lowest QC (ng·mL^-1): Baishouwu benzophenone 3.34, Syringic acid 8.18, Qingyangshengenin 1.58, Deacylmetaplexigenin 17.26
[10] = Brain homogenate, middle QC (ng·mL^-1): Baishouwu benzophenone 20.88, Syringic acid 51.14, Qingyangshengenin 9.90, Deacylmetaplexigenin 107.87
[11] = Heart homogenate, highest QC (ng·mL^-1): Baishouwu benzophenone 111.56, Syringic acid 340.93, Qingyangshengenin 350.76, Deacylmetaplexigenin 1522.88
[12] = Heart homogenate, lowest QC (ng·mL^-1): Baishouwu benzophenone 2.66, Syringic acid 8.11, Qingyangshengenin 8.35, Deacylmetaplexigenin 36.24
[13] = Heart homogenate, middle QC (ng·mL^-1): Baishouwu benzophenone 18.96, Syringic acid 57.96, Qingyangshengenin 59.63, Deacylmetaplexigenin 258.89
[14] = Kidney homogenate, highest QC (ng·mL^-1): Baishouwu benzophenone 768.40, Syringic acid 1230.44, Qingyangshengenin 844.98, Deacylmetaplexigenin 2249.71
[15] = Kidney homogenate, lowest QC (ng·mL^-1): Baishouwu benzophenone 9.84, Syringic acid 15.75, Qingyangshengenin 10.82, Deacylmetaplexigenin 28.80
[16] = Kidney homogenate, middle QC (ng·mL^-1): Baishouwu benzophenone 81.96, Syringic acid 131.25, Qingyangshengenin 90.13, Deacylmetaplexigenin 239.97
[17] = Liver homogenate, highest QC (ng·mL^-1): Baishouwu benzophenone 313.75, Syringic acid 268.07, Qingyangshengenin 4484.13, Deacylmetaplexigenin 3093.35
[18] = Liver homogenate, lowest QC (ng·mL^-1): Baishouwu benzophenone 1.77, Syringic acid 22.34, Qingyangshengenin 25.26, Deacylmetaplexigenin 16.38
[19] = Liver homogenate, middle QC (ng·mL^-1): Baishouwu benzophenone 27.19, Syringic acid 89.35, Qingyangshengenin 386.62, Deacylmetaplexigenin 268.09
[20] = Lung homogenate, highest QC (ng·mL^-1): Baishouwu benzophenone 630.29, Syringic acid 662.80, Qingyangshengenin 385.86, Deacylmetaplexigenin 1513.71
[21] = Lung homogenate, lowest QC (ng·mL^-1): Baishouwu benzophenone 17.66, Syringic acid 18.57, Qingyangshengenin 10.81, Deacylmetaplexigenin 42.42
[22] = Lung homogenate, middle QC (ng·mL^-1): Baishouwu benzophenone 105.98, Syringic acid 111.44, Qingyangshengenin 64.88, Deacylmetaplexigenin 254.52
[23] = Small intestine homogenate, highest QC (ng·mL^-1): Baishouwu benzophenone 39.22, Syringic acid 773.28, Qingyangshengenin 1726.39, Deacylmetaplexigenin 1206.41
[24] = Small intestine homogenate, lowest QC (ng·mL^-1): Baishouwu benzophenone 0.46, Syringic acid 9.31, Qingyangshengenin 20.77, Deacylmetaplexigenin 14.52
[25] = Small intestine homogenate, middle QC (ng·mL^-1): Baishouwu benzophenone 4.97, Syringic acid 97.95, Qingyangshengenin 218.68, Deacylmetaplexigenin 152.81
[26] = Spleen homogenate, highest QC (ng·mL^-1): Baishouwu benzophenone 658.88, Syringic acid 752.66, Qingyangshengenin 418.52, Deacylmetaplexigenin 1979.74
[27] = Spleen homogenate, lowest QC (ng·mL^-1): Baishouwu benzophenone 10.98, Syringic acid 12.54, Qingyangshengenin 6.98, Deacylmetaplexigenin 33.00
[28] = Spleen homogenate, middle QC (ng·mL^-1): Baishouwu benzophenone 87.85, Syringic acid 100.35, Qingyangshengenin 55.80, Deacylmetaplexigenin 263.97
[29] = Stomach homogenate, highest QC (ng·mL^-1): Baishouwu benzophenone 47.06, Syringic acid 257.76, Qingyangshengenin 1285.45, Deacylmetaplexigenin 1665.65
[30] = Stomach homogenate, lowest QC (ng·mL^-1): Baishouwu benzophenone 0.63, Syringic acid 3.44, Qingyangshengenin 17.14, Deacylmetaplexigenin 22.21
[31] = Stomach homogenate, middle QC (ng·mL^-1): Baishouwu benzophenone 6.28, Syringic acid 34.37, Qingyangshengenin 171.39, Deacylmetaplexigenin 222.09
[32] = high QC (nominal 1666.00 / 3172.53 / 569.17 / 206.21 ng·mL^-1)
[33] = low QC (nominal 52.06 / 49.57 / 8.89 / 1.61 ng·mL^-1)
[34] = medium QC (nominal 208.25 / 396.57 / 71.13 / 25.78 ng·mL^-1)

CC(=O)C1(O)CCC2(O)C3(O)CC=C4CC(O)CCC4(C)C3CC(O)C12C (stereo not shown) [Deacylmetaplexigenin]
crossing of the blood-brain barrier [1]: could cross the blood-brain barrier
time after oral administration at which almost completely metabolized in tissues ([2]; Sprague-Dawley): 4 h
time of peak in most of organ tissues ([2]; Sprague-Dawley, po): 0.17 to 0.5 h
tissue with the highest concentration ([2]; po): stomach and small intestine
Tmax ([3]; 1 g/kg, oral CA extract, normal and FD rats, read-out: time of peak concentration (Tmax)): 20 to 30 min
AUC(0-inf) [3, 6]: 13900 ng·h/mL
AUC(0-t) [3, 6]: 13300 ng·h/mL
CL/F [3, 6]: 16.5 mL/min/kg
Cmax [3, 6]: 4510 ± 241 ng/mL
half-life [3, 6]: 772 ± 454 min
Tmax ([3]; FD group rats, oral CA extract (0.10 g/mL solution, 10 mL/kg), n = 6, read-out: Tmax): 19.8 ± 4.8 min
Vd/F [3, 6]: 18.1 ± 10.6 L/kg
AUC(0-inf) [3, 7]: 12300 ng·h/mL
AUC(0-t) [3, 7]: 11600 ng·h/mL
CL/F [3, 7]: 19.2 mL/min/kg
Cmax [3, 7]: 4680 ± 499 ng/mL
half-life [3, 7]: 602 ± 190 min
Tmax ([3]; Normal group rats, oral CA extract (0.10 g/mL solution, 10 mL/kg), n = 6, read-out: Tmax): 25.2 ± 6.6 min
Vd/F [3, 7]: 16 ± 3.79 L/kg
Auto-sampler for 6 h Measured concentration [4, 8]: 639.39 ± 12.53 ng/mL
Three freeze-thaw cycles Measured concentration [4, 8]: 657.30 ± 18.60 ng/mL
Auto-sampler for 6 h Measured concentration [4, 9]: 16.37 ± 0.20 ng/mL
Three freeze-thaw cycles Measured concentration [4, 9]: 16.11 ± 0.43 ng/mL
Auto-sampler for 6 h Measured concentration [4, 10]: 106.81 ± 0.35 ng/mL
Three freeze-thaw cycles Measured concentration [4, 10]: 107.57 ± 1.64 ng/mL
Auto-sampler for 6 h Measured concentration [4, 11]: 1545.69 ± 28.28 ng/mL
Three freeze-thaw cycles Measured concentration [4, 11]: 1530.72 ± 31.74 ng/mL
Auto-sampler for 6 h Measured concentration [4, 12]: 29.91 ± 0.63 ng/mL
Three freeze-thaw cycles Measured concentration [4, 12]: 30.14 ± 0.33 ng/mL
Auto-sampler for 6 h Measured concentration [4, 13]: 253.92 ± 7.65 ng/mL
Three freeze-thaw cycles Measured concentration [4, 13]: 251.51 ± 4.47 ng/mL
Auto-sampler for 6 h Measured concentration [4, 14]: 2268.44 ± 53.12 ng/mL
Three freeze-thaw cycles Measured concentration [4, 14]: 2270.72 ± 48.43 ng/mL
Auto-sampler for 6 h Measured concentration [4, 15]: 30.96 ± 0.89 ng/mL
Three freeze-thaw cycles Measured concentration [4, 15]: 30.51 ± 1.21 ng/mL
Auto-sampler for 6 h Measured concentration [4, 16]: 267.87 ± 13.29 ng/mL
Three freeze-thaw cycles Measured concentration [4, 16]: 266.54 ± 9.78 ng/mL
Auto-sampler for 6 h Measured concentration [4, 17]: 3350.30 ± 128.16 ng/mL
Three freeze-thaw cycles Measured concentration [4, 17]: 3302.83 ± 129.48 ng/mL
Auto-sampler for 6 h Measured concentration [4, 18]: 15.66 ± 0.68 ng/mL
Three freeze-thaw cycles Measured concentration [4, 18]: 15.51 ± 0.68 ng/mL
Auto-sampler for 6 h Measured concentration [4, 19]: 249.04 ± 7.02 ng/mL
Three freeze-thaw cycles Measured concentration [4, 19]: 245.11 ± 4.40 ng/mL
Auto-sampler for 6 h Measured concentration [4, 20]: 1544.16 ± 36.02 ng/mL
Three freeze-thaw cycles Measured concentration [4, 20]: 1549.77 ± 41.79 ng/mL
Auto-sampler for 6 h Measured concentration [4, 21]: 38.33 ± 2.37 ng/mL
Three freeze-thaw cycles Measured concentration [4, 21]: 37.62 ± 2.38 ng/mL
Auto-sampler for 6 h Measured concentration [4, 22]: 243.55 ± 12.09 ng/mL
Three freeze-thaw cycles Measured concentration [4, 22]: 240.11 ± 10.98 ng/mL
Auto-sampler for 6 h Measured concentration [4, 23]: 1293.63 ± 65.40 ng/mL
Three freeze-thaw cycles Measured concentration [4, 23]: 1296.24 ± 110.99 ng/mL
Auto-sampler for 6 h Measured concentration [4, 24]: 12.77 ± 1.27 ng/mL
Three freeze-thaw cycles Measured concentration [4, 24]: 12.39 ± 1.33 ng/mL
Auto-sampler for 6 h Measured concentration [4, 25]: 150.09 ± 2.73 ng/mL
Three freeze-thaw cycles Measured concentration [4, 25]: 154.01 ± 1.23 ng/mL
Auto-sampler for 6 h Measured concentration [4, 26]: 1990.73 ± 48.18 ng/mL
Three freeze-thaw cycles Measured concentration [4, 26]: 1950.06 ± 62.22 ng/mL
Auto-sampler for 6 h Measured concentration [4, 27]: 31.95 ± 1.48 ng/mL
Three freeze-thaw cycles Measured concentration [4, 27]: 32.15 ± 1.58 ng/mL
Auto-sampler for 6 h Measured concentration [4, 28]: 232.19 ± 3.53 ng/mL
Three freeze-thaw cycles Measured concentration [4, 28]: 247.56 ± 6.23 ng/mL
Auto-sampler for 6 h Measured concentration [4, 29]: 1622.87 ± 76.11 ng/mL
Three freeze-thaw cycles Measured concentration [4, 29]: 1662.82 ± 50.13 ng/mL
Auto-sampler for 6 h Measured concentration [4, 30]: 21.14 ± 1.50 ng/mL
Three freeze-thaw cycles Measured concentration [4, 30]: 21.58 ± 1.95 ng/mL
Auto-sampler for 6 h Measured concentration [4, 31]: 244.68 ± 7.59 ng/mL
Three freeze-thaw cycles Measured concentration [4, 31]: 245.34 ± 9.19 ng/mL
Measured concentration, 4°C for 24 h [5, 32]: 3164.75 ± 84.97 ng/mL
Measured concentration, Three freeze-thaw cycles [5, 32]: 3053.63 ± 57.47 ng/mL
Measured concentration, 4°C for 24 h [5, 33]: 52.01 ± 2.68 ng/mL
Measured concentration, Three freeze-thaw cycles [5, 33]: 53.08 ± 3.47 ng/mL
Measured concentration, 4°C for 24 h [5, 34]: 406.61 ± 10.59 ng/mL
Measured concentration, Three freeze-thaw cycles [5, 34]: 352.32 ± 6.40 ng/mL

Reference: publication PMC10616469, “Pharmacokinetics and tissue distribution of four major bioactive components of Cynanchum auriculatum extract: a UPLC–MS/MS study in normal and functional dyspepsia rats” (Frontiers in Pharmacology, 2023)
